In series [1] the test system is Salmonella typhimurium on chicken skin. Description: Effect of surfactants on Salmonella attached to chicken skin, drumsticks (Tables F1-F4). The settings on record: 4° C. The protocol: The following experiments utilizing chicken legs were conducted to determine the killing potential of a variety of surfactants against Salmonella on the skin and free in solutions. To this end, chicken legs obtained from the Department of Agriculture at the University of Arkansas, Fayetteville, were incubated for thirty minutes at room temperature with a 1:5000 dilution of Salmonella typhimurium. The chicken legs were removed five at a time and then rinsed twice in tap water to remove the unattached and excess Salmonella. The rinse water was sampled, diluted, and then plated onto XLD pour plates. […] The chicken legs were then removed and rinsed twice in tap water to remove the released Salmonella and excess chemicals. Rinses were then sampled, diluted, and then plated onto XLD pour plates.
The chicken legs were then individually washed with 100 ml sterile double distilled water, and then shaken fifty times. Samples of the wash H2 O were diluted and plated onto XLD pour plates. The chicken legs were further swabbed after the washing step above. The swabs were then plated onto the XLD plates. A set of wash samples were enriched with TT Broth Base Hajna and then plated onto XLD plates.
All of the samples were plated in 1 ml aliquots onto XLD pour plates. A positive control sample incubated in sterile double distilled water at 4° C. was run for each of the aforementioned conditions. Treatments occurred at both 4° C. and 25° C. The data is reported as the mean number of CFU/ml. The ratio in the table represents the number of chicken legs out of a sample of ten chicken legs producing the notated number of colonies, as indicated by the +, ++, +++, or ++++.

The test system is the same in series [2]. Briefly: Prevention of attachment of Salmonella on excised chicken skin (Table F5). As to conditions: for CFU/ml on XLD agar: rinse water. The protocol: To determine the ability of surfactants to inhibit attachment or produce detachment of Salmonella, the following experiment was conducted. A hole was bored into the bottom of a 150 ml specimen cup. Chicken skin was excised from a drum stick and then placed over the cap of the specimen cup, and then the cap was screwed on. S. typhimurium was diluted 1:5000 with PBS or a surfactant. The surfactants were diluted appropriately. The skin was then inoculated with the solution containing the S. typhimurium and the surfactant for 30 minutes at room temperature.
Following incubation, the skin was washed. The rinse water was diluted appropriately in PBS and then plated onto XLD pour plates. The S. typhimurium was counted and reported as CFU/ml. The skin was swabbed so as to remove any remaining S. typhimurium using a nitroellulose lift and the CFU's/ml on the lift were also counted.

The subject of series [3] is Salmonella typhimurium TA98. Briefly: Salmonella reversion assay, TA98. Here is the method:
(§1) Test strains TA98 and TA100 were obtained from Bruce N. Ames (University of California, Berkley, Calif.). Mutagenicities were determined both in the absence of and in the presence of a mammalian liver S9 activating system. S9 is the 9000×g supernatant prepared from liver homogenates from Aroclor 1254 stimulated male Sprague Dawley rats. The S9 was purchased from Molecular Toxicology, Inc. (Anapolis, Md.).
(§2) Bacterial broth cultures were grown overnight at 37° with shaking in Oxoid Broth #2. For assays in the absence of S9, a 0.5 ml aliquot of 100 mM Sodium Phosphate Buffer, pH 7.4, was added to sterile 13×100 mm capped culture tubes. For assays in the presence of S9, a 0.5 ml aliquot of 10% S9 mix was added. The S9 mix consisted of 8 mM magnesium chloride, 33 mM potassium chloride, 5 mM glucose-6-phosphate, 4 mM NADP, 100 mM sodium phosphate, pH 7.4 and S9 in a concentration of approximately 1.46 mg protein/ml.
(§3) The culture tubes were placed in an ice bath and 0.1 ml of the bacterial suspension and 0.1 ml of a DMSO solution of the test compound were added. The mixture was vortexed gently and incubated at 37° for 20 minutes with shaking in a water bath. Molten top agar (2.0 ml) containing 0.5 mM histidine HCl and 0.5 mM biotin were added, and the mixture was vortexed gently and poured onto a minimal glucose plate. After allowing the agar to solidify, the plates were inverted and placed in a 37° incubator in the dark for 48 hours. The revertant (mutant) colonies were counted and the background lawn was examined on all plates. A response that was two times that of the DMSO solvent control was considered a positive response.

For series [4], the system named is Salmonella typhimurium TA100. Description: Salmonella reversion assay, TA100. Here is the method: as §1, §2, §3
For series [5], the system named is Salmonella typhimurium TA98. Briefly: Salmonella reversion assay after heating at 205° C., TA98. It counts as cell-based. The protocol:
(§4) Test strains TA98 and TA100 were used. Again, mutagenicities were determined both in the absence and in the presence of the mammalian liver S9 activating system.
(§5) A response that was two times that of the solvent control was considered a positive response.

Series [6] concerns Salmonella typhimurium TA100. Briefly: Salmonella reversion assay after heating at 205° C., TA100. The series is classed as cell-based. The protocol:
as §4, §5

The test system of series [7] is Salmonella typhimurium ATCC 14028 attached to human buccal epithelial cells. It counts as cell-based. The settings on record: for adherence, mean value of attached bacteria: Table A-1. Here is the method:
Studies were conducted on the attachment of Salmonella typhimurium to human buccal epithelial cells using the modified procedure of Boussard et al., International J. Pharmaceutics 53: 253-256 (1989). In this study, the activities of cationic and anionic surfactant compounds as well as certain chelating agents were compared on the detachment of S. typhimurium from epithelial cells.
To this end, bacteria were grown on nutrient agar for 16 hours at 37° C. The cells were suspended in 0.008 M phosphate buffered saline (PBS) at pH 7.2 and washed two times at 4500 rpm for 10 minutes. The last suspension was diluted in PBS to obtain a cell concentration of 0.5 to 1×10^9 cells/ml. Human epithelial cells were obtained by swabbing the buccal surface of a healthy, nonsmoking donor. […] The number of living cells was estimated and the suspension diluted to 0.5 to 1×10^5 cells/ml.
Next, the suspension of the human buccal cells was mixed with an equal volume of the bacterial suspension (3.0 ml), or PBS (0.8 ml). Contact was allowed for 1.5 hours at 35° C. under agitation. The mixtures were then centrifuged for 10 minutes at 4500 rpm. Each suspension, 1.0 ml, was transferred into Eppendorf vials and washed with PBS at 1500 rpm for 10 minutes. After the washing, the cells were treated with 1.0 ml PBS or 1.0 ml of the test chemical solution. Treatment was performed by suspending and vortexing on a low speed for 30 seconds followed by centrifugation at 1500 rpm for 10 minutes.
After the treatment, the cells were washed once with PBS and then 20 μl of erythrosin B was added to each vial. The suspension was centrifuged at 1500 rpm for 10 minutes, and the cells were washed twice under the same conditions. The final pellet was suspended in 300 μl of PBS. This suspension was spread out onto microscope slides and dried overnight at room temperature. After counter staining with methylene blue, the slides were microscopically examined under oil immersion.

In series [8] the test system is Salmonella typhimurium ATCC 14028. Briefly: Effect on viability of Salmonella in suspension (Tables D-1 to D-3). The settings on record: for bacterial viability: Table D-3. It counts as cell-based. Here is the method:
EC50 values for four of the compounds were calculated from the bactericidal activity of the compounds as a function of molar concentration by a nonlinear regression algorithm.
In addition to the quaternary ammonium compounds, the antimicrobial activities of chelating agents Na2 -EDTA and EGTA were investigated. Na2 -EDTA was purchased from the Sigma Chemical Company (St. Louis, Mo.). Na2 -EDTA was dissolved in 0.04 M PPB prior to the assay and further dilutions were made in the same buffer.
EGTA was purchased from the Aldrich Chemical Company (Milwaukee, Wis.). EGTA was dissolved in 0.04 M PPB according to the procedure described by Harafuji and Ogawa (J. Biochem. 87:1305-1312 (1980)). After heating EGTA for 15 minutes at 80° C., the pH was adjusted to 7.0 by addition of NaOH. EGTA was filter-sterilized using a 0.2 μm Acro disc filter (Gelman Sciences; Ann Arbor, Mich.) prior to the assay. Further dilutions were made in sterile PPB.

“Also recorded” adds a separate entry of the source. Like-named read-outs stand apart in the source and are kept apart here.

With `C[C@H](CCC(=O)O)[C@H]1CC[C@H]2[C@@H]3CC[C@@H]4C[C@H](O)CC[C@]4(C)[C@H]3C[C@H](O)[C@]12C` [Deoxycholic Acid, reference compound], in series [1] (0.1%), the “Enrichment, chicken legs out of ten” value is given as 10/10; the “Rinse H2O” value was “+ (1-10)”; the “Surfactant Solution” value was “++ (11-100)”; the “Swabs, chicken legs producing the notated number of colonies” value (shortened to “Swabs … of colonies”) is listed as 10/10. Further, in series [1] (0.1%), the “Swabs, colonies” value is recorded as “++ (11-100)”; the “Wash H2O, chicken legs producing the notated number of colonies” value (“Wash H2O … of colonies” for short) is 10/10; the “Wash H2O, colonies” value is on record as “++ (11-100)”. Further, in series [1] (0.5%), the “Enrichment, chicken legs out of ten” value is 10/10; the “Rinse H2O” value is “+ (1-10)”; the “Surfactant Solution” value is listed as “+ (1-10)”; the “Swabs … of colonies” value is 10/10. In series [1] (0.5%), the “Swabs, colonies” value is given as “+ (1-10)”; the “Wash H2O … of colonies” value is listed as 10/10; the “Wash H2O, colonies” value is reported as “++ (11-100)”. In series [1] (1.0%), the “Enrichment, chicken legs out of ten” value was 10/10; the “Rinse H2O” value is recorded as “+ (1-10)”; the “Surfactant Solution” value is given as “++ (11-100)”; the “Swabs … of colonies” value is on record as 9/10. In addition, in series [1] (1.0%), the “Swabs, colonies” value is “++ (11-100)”; the “Wash H2O … of colonies” value is recorded as 10/10; the “Wash H2O, colonies” value is reported as “++ (11-100)”. Besides, the “CFU/ml on XLD agar” value in series [2] (30 minutes at room temperature) came to 90 CFU/ml.
With `Nc1ccc2cc3ccccc3cc2c1` [2aminoanthracene, reference compound], the control reversion frequency in series [3] (TA98, +S9, 2.5 μg/plate) came to 901 ± 90 Revertants/plate; in series [4] (TA100, +S9, 2.5 μg/plate), 1497 ± 68 Revertants/plate; in series [5] (TA98, +S9, 2.5 μg/plate), 909 ± 85 Revertants/plate; in series [6] (TA100, +S9, 2.5 μg/plate) it was 1103 ± 84 Revertants/plate.
With `CC(C)(C)CC(C)(C)c1ccc(OCCOCC[N+](C)(C)Cc2ccccc2)cc1` [Benzethonium Chloride, reference compound], in series [1] (0.1%), the “Enrichment, chicken legs out of ten” value is 2/10; the “Rinse H2O” value is “+ (1-10)”; the “Surfactant Solution” value came to 0 CFU/ml; the “Swabs … of colonies” value is 9/10. In series [1] (0.1%), the “Swabs, colonies” value is “++ (11-100)”; the “Wash H2O … of colonies” value is 1/10; the “Wash H2O, colonies” value was “+ (1-10)”. Moreover, in series [1] (0.5%), the “Enrichment, chicken legs out of ten” value is recorded as 0/10; the “Rinse H2O” value was “+ (1-10)”; the “Surfactant Solution” value worked out at 0 CFU/ml; the “Swabs … of colonies” value is reported as 8/10. Further, in series [1] (0.5%), the “Swabs, colonies” value is recorded as “++ (11-100)” and the “Wash H2O … of colonies” value is given as 0/10. For the same compound, in series [1] (1.0%), the “Enrichment, chicken legs out of ten” value is given as 0/10; the “Rinse H2O” value is reported as “+ (1-10)”; the “Surfactant Solution” value is 0 CFU/ml; the “Swabs … of colonies” value is given as 5/10. Moreover, in series [1] (1.0%), the “Swabs, colonies” value was “++ (11-100)” and the “Wash H2O … of colonies” value is listed as 0/10. In series [2], the “preventing attachment of S. typhimurium on chicken skin (in words)” value was “most effective in preventing Salmonella contamination of chicken skin”. Further, in series [2] (30 minutes at room temperature), the “CFU/ml on XLD agar” value is 10 CFU/ml. The “Nitrocellulose lift (# of colonies)” value in series [2] (skin, 30 minutes at room temperature) was 250 # of colonies.
As for `O=C(O)CN(CCOCCOCCN(CC(=O)O)CC(=O)O)CC(=O)O` [EGTA, reference compound], the “effect on bacteria attached to the epithelial cells (in words)” value in series [7] (chelating agents, Na2-EDTA at 1250 μg/ml) is “no significant effect”. The figures for the bacterial viability in series [8] (1,250 μg/ml), in series [8] (2,500 μg/ml) and in series [8] (5,000 μg/ml) were 1.55 ± 0.09 × 10^9 CFU/ml, 1.45 ± 0.03 × 10^9 CFU/ml and 1.51 ± 0.18 × 10^8 CFU/ml, respectively. The “bactericidal effect against S. typhimurium (in words)” value in series [8] (viability testing in suspension) was “ineffective; also recorded: no bactericidal effect”.
As for `CCCCCCCCCCCCCCCC[n+]1ccccc1` [CPB, cetylpyridinium bromide], the “adherence, mean value of attached bacteria” value in series [7] (10 ug/ml) is 28 ± 28; in series [7] (25 ug/ml), 23 ± 17; in series [7] (50 ug/ml) it was 25 ± 10.
On to `O=C1NCCN1c1ncc([N+](=O)[O-])s1` [Niridazole, reference compound], for which the control reversion frequency is given as 358 ± 19 Revertants/plate in series [3] (TA98, -S9, 0.2 μg/plate); 637 ± 57 Revertants/plate in series [4] (TA100, -S9, 0.2 μg/plate); 126 ± 7 Revertants/plate in series [5] (TA98, -S9, 0.2 μg/plate); 729 ± 30 Revertants/plate in series [6] (TA100, -S9, 0.2 μg/plate).

The values are drawn from patent publication US5366983A, “Use of quaternary ammonium compounds to remove salmonella contamination from meat products” (The Board of Trustees of The University of Arkansas, priority 1992, dated 1994).
